Reference: the NIST ThermoML archive (doi:10.1021/acs.jced.9b00396)

Conditions: Liquid; for speed of sound: Frequency=3 MHz, Single path-length method; for mass density: Vibrating tube method

C[S+](C)[O-] [dimethyl sulfoxide]
Conditions | mass density [kg/m3] | speed of sound [m/s]
293.15 K, 100 kPa | 1100.4 | 1502
293.15 K, 500 kPa | 1100 | –
293.15 K, 1000 kPa | 1101 | –
293.15 K, 2500 kPa | 1102 | –
293.15 K, 5000 kPa | 1103 | –
293.15 K, 7500 kPa | 1104 | –
293.15 K, 10000 kPa | 1106 | –
293.15 K, 12500 kPa | 1107 | –
293.15 K, 15000 kPa | 1108 | –
293.15 K, 17500 kPa | 1110 | –
293.15 K, 20000 kPa | 1111 | –
293.15 K, 22500 kPa | 1112 | –
293.15 K, 25000 kPa | 1114 | –
293.15 K, 27500 kPa | 1115 | –
293.15 K, 30000 kPa | 1116 | –
293.15 K, 32500 kPa | 1117 | –
293.15 K, 35000 kPa | 1119 | –
293.15 K, 37500 kPa | 1120 | –
298.15 K, 100 kPa | 1095.4 | 1485
298.15 K, 500 kPa | 1095 | –
298.15 K, 1000 kPa | 1096 | –
298.15 K, 2500 kPa | 1096 | –
298.15 K, 5000 kPa | 1098 | –
298.15 K, 7500 kPa | 1099 | –
298.15 K, 10000 kPa | 1101 | –
298.15 K, 12500 kPa | 1102 | –
298.15 K, 15000 kPa | 1103 | –
298.15 K, 17500 kPa | 1105 | –
298.15 K, 20000 kPa | 1106 | –
298.15 K, 22500 kPa | 1107 | –
298.15 K, 25000 kPa | 1109 | –
298.15 K, 27500 kPa | 1110 | –
298.15 K, 30000 kPa | 1111 | –
298.15 K, 32500 kPa | 1113 | –
298.15 K, 35000 kPa | 1114 | –
298.15 K, 37500 kPa | 1115 | –
313.15 K, 100 kPa | 1080.3 | 1435
313.15 K, 500 kPa | 1080 | –
313.15 K, 1000 kPa | 1080 | –
313.15 K, 2500 kPa | 1081 | –
313.15 K, 5000 kPa | 1083 | –
313.15 K, 7500 kPa | 1084 | –
313.15 K, 10000 kPa | 1086 | –
313.15 K, 12500 kPa | 1087 | –
313.15 K, 15000 kPa | 1089 | –
313.15 K, 17500 kPa | 1090 | –
313.15 K, 20000 kPa | 1092 | –
313.15 K, 22500 kPa | 1093 | –
313.15 K, 25000 kPa | 1095 | –
313.15 K, 27500 kPa | 1096 | –
313.15 K, 30000 kPa | 1097 | –
313.15 K, 32500 kPa | 1099 | –
313.15 K, 35000 kPa | 1100 | –
313.15 K, 37500 kPa | 1101 | –
333.15 K, 100 kPa | 1060.2 | 1368
333.15 K, 500 kPa | 1060 | –
333.15 K, 1000 kPa | 1060 | –
333.15 K, 2500 kPa | 1061 | –
333.15 K, 5000 kPa | 1063 | –
333.15 K, 7500 kPa | 1065 | –
333.15 K, 10000 kPa | 1066 | –
333.15 K, 12500 kPa | 1068 | –
333.15 K, 15000 kPa | 1070 | –
333.15 K, 17500 kPa | 1071 | –
333.15 K, 20000 kPa | 1073 | –
333.15 K, 22500 kPa | 1074 | –
333.15 K, 25000 kPa | 1076 | –
333.15 K, 27500 kPa | 1077 | –
333.15 K, 30000 kPa | 1079 | –
333.15 K, 32500 kPa | 1080 | –
333.15 K, 35000 kPa | 1082 | –
333.15 K, 37500 kPa | 1083 | –
353.15 K, 500 kPa | 1040 | –
353.15 K, 1000 kPa | 1040 | –
353.15 K, 2500 kPa | 1042 | –
353.15 K, 5000 kPa | 1043 | –
353.15 K, 7500 kPa | 1045 | –
353.15 K, 10000 kPa | 1047 | –
353.15 K, 12500 kPa | 1049 | –
353.15 K, 15000 kPa | 1050 | –
353.15 K, 17500 kPa | 1052 | –
353.15 K, 20000 kPa | 1054 | –
353.15 K, 22500 kPa | 1055 | –
353.15 K, 25000 kPa | 1057 | –
353.15 K, 27500 kPa | 1059 | –
353.15 K, 30000 kPa | 1060 | –
353.15 K, 32500 kPa | 1062 | –
353.15 K, 35000 kPa | 1063 | –
353.15 K, 37500 kPa | 1065 | –
373.15 K, 500 kPa | 1020 | –
373.15 K, 1000 kPa | 1020 | –
373.15 K, 2500 kPa | 1022 | –
373.15 K, 5000 kPa | 1024 | –
373.15 K, 7500 kPa | 1026 | –
373.15 K, 10000 kPa | 1027 | –
373.15 K, 12500 kPa | 1029 | –
373.15 K, 15000 kPa | 1031 | –
373.15 K, 17500 kPa | 1033 | –
373.15 K, 20000 kPa | 1035 | –
373.15 K, 22500 kPa | 1037 | –
373.15 K, 25000 kPa | 1038 | –
373.15 K, 27500 kPa | 1040 | –
373.15 K, 30000 kPa | 1042 | –
373.15 K, 32500 kPa | 1044 | –
373.15 K, 35000 kPa | 1045 | –
373.15 K, 37500 kPa | 1047 | –
393.15 K, 500 kPa | 999 | –
393.15 K, 1000 kPa | 1000 | –
393.15 K, 2500 kPa | 1001 | –
393.15 K, 5000 kPa | 1004 | –
393.15 K, 7500 kPa | 1006 | –
393.15 K, 10000 kPa | 1008 | –
393.15 K, 12500 kPa | 1010 | –
393.15 K, 15000 kPa | 1012 | –
393.15 K, 17500 kPa | 1014 | –
393.15 K, 20000 kPa | 1016 | –
393.15 K, 22500 kPa | 1018 | –
393.15 K, 25000 kPa | 1020 | –
393.15 K, 27500 kPa | 1022 | –
393.15 K, 30000 kPa | 1024 | –
393.15 K, 32500 kPa | 1025 | –
393.15 K, 35000 kPa | 1027 | –
393.15 K, 37500 kPa | 1029 | –
413.15 K, 500 kPa | 979 | –
413.15 K, 1000 kPa | 979 | –
413.15 K, 2500 kPa | 981 | –
413.15 K, 5000 kPa | 983 | –
413.15 K, 7500 kPa | 986 | –
413.15 K, 10000 kPa | 988 | –
413.15 K, 12500 kPa | 990 | –
413.15 K, 15000 kPa | 993 | –
413.15 K, 17500 kPa | 995 | –
413.15 K, 20000 kPa | 997 | –
413.15 K, 22500 kPa | 999 | –
413.15 K, 25000 kPa | 1001 | –
413.15 K, 27500 kPa | 1003 | –
413.15 K, 30000 kPa | 1005 | –
413.15 K, 32500 kPa | 1007 | –
413.15 K, 35000 kPa | 1009 | –
413.15 K, 37500 kPa | 1011 | –
433.15 K, 500 kPa | 958 | –
433.15 K, 1000 kPa | 958 | –
433.15 K, 2500 kPa | 960 | –
433.15 K, 5000 kPa | 963 | –
433.15 K, 7500 kPa | 966 | –
433.15 K, 10000 kPa | 968 | –
433.15 K, 12500 kPa | 971 | –
433.15 K, 15000 kPa | 973 | –
433.15 K, 17500 kPa | 976 | –
433.15 K, 20000 kPa | 978 | –
433.15 K, 22500 kPa | 980 | –
433.15 K, 25000 kPa | 983 | –
433.15 K, 27500 kPa | 985 | –
433.15 K, 30000 kPa | 987 | –
433.15 K, 32500 kPa | 989 | –
433.15 K, 35000 kPa | 991 | –
433.15 K, 37500 kPa | 993 | –
453.15 K, 500 kPa | 936 | –
453.15 K, 1000 kPa | 937 | –
453.15 K, 2500 kPa | 939 | –
453.15 K, 5000 kPa | 942 | –
453.15 K, 7500 kPa | 945 | –
453.15 K, 10000 kPa | 948 | –
453.15 K, 12500 kPa | 951 | –
453.15 K, 15000 kPa | 953 | –
453.15 K, 17500 kPa | 956 | –
453.15 K, 20000 kPa | 959 | –
453.15 K, 22500 kPa | 961 | –
453.15 K, 25000 kPa | 964 | –
453.15 K, 27500 kPa | 966 | –
453.15 K, 30000 kPa | 969 | –
453.15 K, 32500 kPa | 971 | –
453.15 K, 35000 kPa | 973 | –
453.15 K, 37500 kPa | 976 | –
473.15 K, 500 kPa | 914 | –
473.15 K, 1000 kPa | 915 | –
473.15 K, 2500 kPa | 917 | –
473.15 K, 5000 kPa | 921 | –
473.15 K, 7500 kPa | 924 | –
473.15 K, 10000 kPa | 927 | –
473.15 K, 12500 kPa | 930 | –
473.15 K, 15000 kPa | 933 | –
473.15 K, 17500 kPa | 936 | –
473.15 K, 20000 kPa | 939 | –
473.15 K, 22500 kPa | 942 | –
473.15 K, 25000 kPa | 945 | –
473.15 K, 27500 kPa | 948 | –
473.15 K, 30000 kPa | 950 | –
473.15 K, 32500 kPa | 953 | –
473.15 K, 35000 kPa | 955 | –
473.15 K, 37500 kPa | 958 | –
